Results from PubChem BioAssay (NCI).
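Assay format: 96-well plates, 48-hour exposure. At the TGI there is no net growth.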

How the values were obtained:
Test in all cases: inhibition of tumour cell growth, NCI panel, 48 h
[1] = tested on: 786-0 renal
[2] = tested on: A498 renal
[3] = tested on: A549 NSCLC
[4] = tested on: ACHN renal
[5] = tested on: CAKI-1 renal
[6] = tested on: COLO 205 colon
[7] = tested on: DLD-1 colon
[8] = tested on: DMS 114 small cell lung
[9] = tested on: DMS 273 small cell lung
[10] = tested on: EKVX NSCLC
[11] = tested on: HCC-2998 colon
[12] = tested on: HCT-116 colon
[13] = tested on: HCT-15 colon
[14] = tested on: HL-60(TB) leukemia
[15] = tested on: HOP-18 NSCLC
[16] = tested on: HOP-62 NSCLC
[17] = tested on: HOP-92 NSCLC
[18] = tested on: HT29 colon
[19] = tested on: IGROV1 ovarian
[20] = tested on: K-562 leukemia
[21] = tested on: KM12 colon
[22] = tested on: KM20L2 colon
[23] = tested on: LOX IMVI melanoma
[24] = tested on: LXFL 529 NSCLC
[25] = tested on: M14 melanoma
[26] = tested on: M19-MEL melanoma
[27] = tested on: MALME-3M melanoma
[28] = tested on: MOLT-4 leukemia
[29] = tested on: NCI-H226 lung
[30] = tested on: NCI-H23 lung
[31] = tested on: NCI-H460 lung
[32] = tested on: NCI-H522 lung
[33] = tested on: OVCAR-3 ovarian
[34] = tested on: OVCAR-4 ovarian
[35] = tested on: OVCAR-5 ovarian
[36] = tested on: OVCAR-8 ovarian
[37] = tested on: RPMI-8226 leukemia
[38] = tested on: RXF 393 renal
[39] = tested on: SF-268 CNS
[40] = tested on: SF-295 CNS
[41] = tested on: SF-539 CNS
[42] = tested on: SK-MEL-28 melanoma
[43] = tested on: SK-MEL-5 melanoma
[44] = tested on: SK-OV-3 ovarian
[45] = tested on: SN12C renal
[46] = tested on: SNB-19 CNS
[47] = tested on: SNB-75 CNS
[48] = tested on: SNB-78 CNS
[49] = tested on: SR leukemia
[50] = tested on: SW-620 colon
[51] = tested on: TK-10 renal
[52] = tested on: U251 CNS
[53] = tested on: UACC-257 melanoma
[54] = tested on: UACC-62 melanoma
[55] = tested on: UO-31 renal
[56] = tested on: XF 498 CNS
[57] = tested on: CCRF-CEM leukemia
[58] = tested on: RXF-631 renal
[59] = tested on: SK-MEL-2 melanoma

Measured: TGI

Cc1ccc(S(=O)OCc2c(C)c(C)c(COS(=O)c3ccc(C)cc3)c(C)c2C)cc1 (stereo not given)
not listed: [57] | [58] | [59]
> 100 µM: all other assays above

CCCOC(=O)CNC(=O)OC(C)(C)C
not listed: [1] | [2] | [28] | [37] | [45]
> 100 µM: all other assays above

COC12OCCN(C)C1=CC(=O)C1=NNC(C)C12 (stereo not given)
not listed: [4] | [16] | [22] | [27] | [34] | [35] | [39] | [46] | [49] | [56] | [59]
> 100 µM: all other assays above

C=CCN1CCC23c4c5ccc(O)c4OC2C(=NN=C2CCC4(O)C6Cc7ccc(O)c8c7C4(CCN6CC=C)C2O8)CCC3(O)C1C5 (stereo not given)
40.8 µM: [34]
78.7 µM: [20]
37.7 µM: [9]
40.9 µM: [40]
42.8 µM: [3]
37.6 µM: [18]
53.2 µM: [53]
43.2 µM: [11]
32 µM: [25]
47.8 µM: [22] | [45]
42.4 µM: [21]
60.8 µM: [8]
35.3 µM: [1] | [42]
34.2 µM: [47]
41.1 µM: [23]
88.7 µM: [24]
72.1 µM: [32]
33.4 µM: [27]
48.9 µM: [50]
68 µM: [48]
39.9 µM: [17]
44 µM: [16]
34.9 µM: [52]
42.1 µM: [6]
33.1 µM: [41]
34.5 µM: [33]
43.7 µM: [31] | [51]
50.2 µM: [58]
41.5 µM: [2]
44.4 µM: [54]
33.8 µM: [59]
32.9 µM: [56]
41.2 µM: [4]
36.3 µM: [43]
61.7 µM: [36]
not listed: [12] | [14] | [26] | [38] | [49]
> 100 µM: all other assays above

Cn1cnnc1Sc1c([N+](=O)[O-])ncn1C
82.5 µM: [15]
46.1 µM: [27]
63 µM: [24]
91.2 µM: [17]
25.6 µM: [32]
not listed: [13] | [14] | [22] | [26] | [38]
> 100 µM: all other assays above

CC(C)(C)[Si](C)(C)OC1C(=O)C[C@H]2CCCC[C@@H]12 (stereo not given in full)
not listed: [29] | [32] | [42] | [49] | [58]
> 100 µM: all other assays above

Nc1ccn(C2OC(C(O)CO)C(O)C2O)c(=O)n1 (stereo not given)
not listed: [1] | [5] | [11] | [18] | [19] | [21] | [26] | [27] | [29] | [33] | [34] | [35] | [46] | [47] | [48] | [49] | [53] | [54] | [59]
> 100 µM: all other assays above
